In patent publication US20130065818A1, “Arylamide Compounds And Compositions And Uses Thereof” (POLYMEDIX, priority 2006, published 2013):
Converted amounts (≈) assume the structure as drawn. Where two headings read alike, the source gives them in different places.

How the values were obtained:
Streptococcus pneumoniae = experiment: MIC, 25 ocular isolates, broth microdilution (Example 8); format: cell-based
Procedure: (§1) Mueller-Hinton Broth supplemented with 2% lysed horse blood in tubes was inoculated with 25 ocular isolates of Streptococcus pneumoniae, Streptococcus viridans group, and Moraxella species (including Moraxella catarrhalis) plus two controls (Staphylococcus aureus and E. coli) and incubated at 37° C. overnight. Additionally, Mueller-Hinton Broth in tubes was inoculated with two controls (Staphylococcus aureus and E. coli) and incubated at 37° C. overnight on a shaker set at 250 rpm.
(§2) On the day of testing, a 640 μg/ml (1280 μg/ml for Serratia marcescens and Pseudomonas aeruginosa) concentration was prepared from a 1% stock solution in 0.01% acetic acid, 0.2% BSA in polypropylene tubes.
(§3) Serial doubling dilutions in 0.01% acetic acid, 0.2% BSA in 96 well polypropylene plates, which are used as reservoirs for the inoculation of the test plates, were carried out to obtain serial dilutions of test agents at 10 times the required test concentrations: 640, 320, 160, 80, 40, 20, 10, 5, 2.5, 1.25, and 0.625 μg/ml (1280, 640, 320, 160, 80, 40, 20, 10, 5, 2.5, and 1.25 μg/ml for Serratia marcescens and Pseudomonas aeruginosa).
(§4) Ten μl of diluted 10×test agents was added to each well of one row of the 96 well polypropylene plates from column 2 to column 12 (column 1 is a control for bacteria alone, with no peptide). Test agent concentrations in columns 2-12 were as follows: 64, 32, 16, 8, 4, 2, 1, 0.5, 0.25, 0.125, and 0.0625 μg/ml (128, 64, 32, 16, 8, 4, 2, 1, 0.5, 0.25, and 0.125 μg/ml for Serratia marcescens and Pseudomonas aeruginosa). The same peptide was in each of the 8 rows. One plate contained dilutions of one test agent and 8 bacterial isolates.
(§5) On the day of testing, the overnight bacterial broth cultures of Streptococcus pneumoniae, Streptococcus viridans and Moraxella species (including Moraxella catarrhalis) plus two controls (Staphylococcus aureus and E. coli) were diluted in 5 ml of trypticase soy broth to yield turbidity equal to a 0.5 McFarland standard. The final inoculum for MIC testing for Streptococcus pneumoniae, Streptococcus viridans and Moraxella species (including Moraxella catarrhalis) was achieved by placing 0.1 ml of the turbidity adjusted sample to 5 ml of Mueller-Hinton broth containing 2% lysed horse red blood cells.
(§6) Ninety μl of the bacterial suspensions was dispensed in each well from column 1 to column 12. Each bacterial isolate was placed in one row of a 96 well polypropylene plate containing the test agents. The plates were placed on shaker at 15 minutes at room temperature, and then incubated at 37° C. overnight. MICs were determined visually as the lowest concentration of drug that inhibits visible bacterial growth.

[1] = tested on: Moraxella species (including Moraxella catarrhalis); experiment: as above; format: cell-based
Procedure: as §1, §2, §3, §4, §5, §6

[2] = n=25 isolates, >64 replaced with 128

In the case of `N=C(N)NCCCCC(=O)Nc1cc(C(F)(F)F)cc(NC(=O)c2cnc(C(=O)Nc3cc(C(F)(F)F)cc(NC(=O)CCCCNC(=N)N)c3SCCN)cn2)c1SCCN` [Oligomer 5], the MIC50 (Streptococcus pneumoniae; 25 isolates, Row 13) is reported as 4 µg/mL (≈ 4.36 µM), the MIC90 (Streptococcus pneumoniae; 25 isolates, Row 22) is reported as 16 µg/mL (≈ 17.4 µM) and the “Range of MICs” value (Streptococcus pneumoniae; 25 isolates, Summary of Results, >64 was Replaced with 128) is reported as 4 to 128 µg/mL. It also gave an MIC (Streptococcus pneumoniae; Streptococcus pneumoniae, 25 ocular isolates, Mueller-Hinton broth with 2% lysed horse red blood cells, read-out: Median MIC) of no more than 4 µg/mL, an MIC (Streptococcus pneumoniae; Streptococcus pneumoniae, isolate 1—B1386, read-out: MIC) greater than 64 µg/mL and an MIC (Streptococcus pneumoniae; Streptococcus pneumoniae, isolate 2—B1380, read-out: MIC) of 4 µg/mL (≈ 4.36 µM). The MIC (Streptococcus pneumoniae; Streptococcus pneumoniae, isolate 3—B1378, read-out: MIC) was 0.5 µg/mL (≈ 0.545 µM), the MIC (Streptococcus pneumoniae; Streptococcus pneumoniae, isolate 4—B1377, read-out: MIC) was 8 µg/mL (≈ 8.72 µM) and the MIC (Streptococcus pneumoniae; Streptococcus pneumoniae, isolate 5—B1373, read-out: MIC) was 8 µg/mL (≈ 8.72 µM). The MIC (Streptococcus pneumoniae; Streptococcus pneumoniae, isolate 6—B1367, read-out: MIC) was 16 µg/mL (≈ 17.4 µM), the MIC (Streptococcus pneumoniae; Streptococcus pneumoniae, isolate 7—B1355, read-out: MIC) was 8 µg/mL (≈ 8.72 µM) and the MIC (Streptococcus pneumoniae; Streptococcus pneumoniae, isolate 8—B1353, read-out: MIC) was 4 µg/mL (≈ 4.36 µM). The MIC (Streptococcus pneumoniae; Streptococcus pneumoniae, isolate 9—B1351, read-out: MIC) was 1 µg/mL (≈ 1.09 µM), the MIC (Streptococcus pneumoniae; Streptococcus pneumoniae, isolate 10—B1339, read-out: MIC) was 2 µg/mL (≈ 2.18 µM) and the MIC (Streptococcus pneumoniae; Streptococcus pneumoniae, isolate 11—B1337, read-out: MIC) was 1 µg/mL (≈ 1.09 µM). It also gave an MIC (Streptococcus pneumoniae; Streptococcus pneumoniae, isolate 12—B1335, read-out: MIC) of 1 µg/mL (≈ 1.09 µM), an MIC (Streptococcus pneumoniae; Streptococcus pneumoniae, isolate 13—B1334, read-out: MIC) of 1 µg/mL (≈ 1.09 µM) and an MIC (Streptococcus pneumoniae; Streptococcus pneumoniae, isolate 14—B1333, read-out: MIC) of 1 µg/mL (≈ 1.09 µM). For the same compound, the MIC (Streptococcus pneumoniae; Streptococcus pneumoniae, isolate 15—B1255, read-out: MIC) was 1 µg/mL (≈ 1.09 µM), the MIC (Streptococcus pneumoniae; Streptococcus pneumoniae, isolate 16—B1288, read-out: MIC) was 8 µg/mL (≈ 8.72 µM) and the MIC (Streptococcus pneumoniae; Streptococcus pneumoniae, isolate 17—B1287, read-out: MIC) was 16 µg/mL (≈ 17.4 µM). It also gave an MIC (Streptococcus pneumoniae; Streptococcus pneumoniae, isolate 18—B1272, read-out: MIC) of 1 µg/mL (≈ 1.09 µM), an MIC (Streptococcus pneumoniae; Streptococcus pneumoniae, isolate 19—B1264, read-out: MIC) of 1 µg/mL (≈ 1.09 µM) and an MIC (Streptococcus pneumoniae; Streptococcus pneumoniae, isolate 20—B1252, read-out: MIC) of 16 µg/mL (≈ 17.4 µM). The MIC (Streptococcus pneumoniae; Streptococcus pneumoniae, isolate 21—B1245, read-out: MIC) was 2 µg/mL (≈ 2.18 µM), the MIC (Streptococcus pneumoniae; Streptococcus pneumoniae, isolate 22—B1211, read-out: MIC) was 8 µg/mL (≈ 8.72 µM) and the MIC (Streptococcus pneumoniae; Streptococcus pneumoniae, isolate 23—B1213, read-out: MIC) was 16 µg/mL (≈ 17.4 µM). For the same compound, the MIC (Streptococcus pneumoniae; Streptococcus pneumoniae, isolate 24—B1208, read-out: MIC) was 8 µg/mL (≈ 8.72 µM), the MIC (Streptococcus pneumoniae; Streptococcus pneumoniae, isolate 25—B1214, read-out: MIC) was 4 µg/mL (≈ 4.36 µM) and the MIC (Streptococcus pneumoniae; Streptococcus pneumoniae, n=25 per group, read-out: Median MIC) was 4 µg/mL (≈ 4.36 µM). For the same compound, the MIC50 (Streptococcus pneumoniae; Streptococcus pneumoniae, 25 isolates, Summary of Results, read-out: MIC50) was 4 µg/mL (≈ 4.36 µM), the MIC90 (Streptococcus pneumoniae; Streptococcus pneumoniae, 25 isolates, Summary of Results, read-out: MIC90) was 16 µg/mL (≈ 17.4 µM) and the MIC (Streptococcus pneumoniae; Streptococcus pneumoniae, 25 isolates, Summary of Results, read-out: Median MIC) was 4 µg/mL (≈ 4.36 µM). For the same compound, the MIC50 (Streptococcus pneumoniae; n=25 per group) was 4 µg/mL (≈ 4.36 µM), the MIC90 (Streptococcus pneumoniae; n=25 per group) was 16 µg/mL (≈ 17.4 µM) and the “Range of MICs” value (Streptococcus pneumoniae; n=25 per group) was 4 to 128 µg/mL. The MIC ([1]; Moraxella, 25 ocular isolates, Mueller-Hinton broth with 2% lysed horse red blood cells, read-out: Median MIC) was no more than 4 µg/mL, the MIC ([1]; Moraxella, isolate 1 K1614 - MS, read-out: MIC) was 64 µg/mL (≈ 69.8 µM) and the MIC ([1]; Moraxella, isolate 2 K1661 - MS, read-out: MIC) was 16 µg/mL (≈ 17.4 µM). The MIC ([1]; Moraxella, isolate 3 K1643 - MS, read-out: MIC) was 0.125 µg/mL (≈ 0.136 µM), the MIC ([1]; Moraxella, isolate 4 K1640 - MS, read-out: MIC) was 8 µg/mL (≈ 8.72 µM) and the MIC ([1]; Moraxella, isolate 5 B1431 - MS, read-out: MIC) was 0.5 µg/mL (≈ 0.545 µM). For the same compound, the MIC ([1]; Moraxella, isolate 6 B1429 - MS, read-out: MIC) was 1 µg/mL (≈ 1.09 µM), the MIC ([1]; Moraxella, isolate 7 B1418 - MS, read-out: MIC) was 0.25 µg/mL (≈ 0.273 µM) and the MIC ([1]; Moraxella, isolate 8 K1784 - MS, read-out: MIC) was 0.25 µg/mL (≈ 0.273 µM). It also gave an MIC ([1]; Moraxella, isolate 9 K1773 - MS, read-out: MIC) of 0.25 µg/mL (≈ 0.273 µM), an MIC ([1]; Moraxella, isolate 10 K1369 - MS, read-out: MIC) of 2 µg/mL (≈ 2.18 µM) and an MIC ([1]; Moraxella, isolate 11 B1275 - MS, read-out: MIC) of 0.125 µg/mL (≈ 0.136 µM). For the same compound, the MIC ([1]; Moraxella, isolate 12 B1221 - MS, read-out: MIC) was 0.125 µg/mL (≈ 0.136 µM), the MIC ([1]; Moraxella, isolate 13 B1172 - MS, read-out: MIC) was greater than 64 µg/mL and the MIC ([1]; Moraxella, isolate 14 E542 - MS, read-out: MIC) was 2 µg/mL (≈ 2.18 µM). It also gave an MIC ([1]; Moraxella, isolate 15 K678 - MS, read-out: MIC) of 0.5 µg/mL (≈ 0.545 µM), an MIC ([1]; Moraxella, isolate 16 K660 - MS, read-out: MIC) of 0.25 µg/mL (≈ 0.273 µM) and an MIC ([1]; Moraxella, isolate 17 K599 - MC, read-out: MIC) of 0.25 µg/mL (≈ 0.273 µM). It also gave an MIC ([1]; Moraxella, isolate 18 K1650 - MC, read-out: MIC) of 0.25 µg/mL (≈ 0.273 µM), an MIC ([1]; Moraxella, isolate 19 K1373 - MC, read-out: MIC) of 0.125 µg/mL (≈ 0.136 µM) and an MIC ([1]; Moraxella, isolate 20 K1553 - MC, read-out: MIC) of 2 µg/mL (≈ 2.18 µM). For the same compound, the MIC ([1]; Moraxella, isolate 21 K1453 - MC, read-out: MIC) was 64 µg/mL (≈ 69.8 µM), the MIC ([1]; Moraxella, isolate 22 K1227 - MC, read-out: MIC) was 1 µg/mL (≈ 1.09 µM) and the MIC ([1]; Moraxella, isolate 23 B1102 - MC, read-out: MIC) was 0.5 µg/mL (≈ 0.545 µM). The MIC ([1]; Moraxella, isolate 24 K1819 - MC, read-out: MIC) was 32 µg/mL (≈ 34.9 µM), the MIC ([1]; Moraxella, isolate 25 K1855 - MC, read-out: MIC) was 8 µg/mL (≈ 8.72 µM) and the MIC50 ([1]; Moraxella, n=25 isolates, >64 replaced with 128, read-out: MIC50) was 0.5 µg/mL (≈ 0.545 µM). The MIC90 ([1]; Moraxella, n=25 isolates, >64 replaced with 128, read-out: MIC90) was 32 µg/mL (≈ 34.9 µM), the MIC ([1]; Moraxella, n=25 isolates, >64 replaced with 128, read-out: Median MIC) was 0.5 µg/mL (≈ 0.545 µM) and the MIC50 [1, 2] was 0.5 µg/mL (≈ 0.545 µM). The MIC90 [1, 2] was 32 µg/mL (≈ 34.9 µM) and the “Range of MICs” value [1, 2] was 0.125 to 128 µg/mL.
